Measurements from patent US10988459B2 (priority 2015, dated 2021).
Like-named read-outs stand apart in the source and are kept apart here.

Biological target: human RIP1 kinase domain (2-375) (Homo sapiens (Human), UniProt Q13546)
Experiment: biochemical
Format: biochemical
Settings: 50 uM ATP
Summary of the method: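 50 nM purified kinase domain from baculovirus-infected insect cells, incubated 2 h with compound in 50 mM Hepes pH 7.5, 30 mM MgCl2, 1 mM DTT, 50 uM ATP, 0.002% Brij-35, 0.5% DMSO. ADP formation read by Transcreener FP at 633 nm excitation. Ki^app fitted with the Morrison tight-binding equation.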

[1] = tight-binding apparent inhibition constant, human RIP1 kinase domain (2-375) 50 nM, 2 hours, read-out: Ki
[2] = Table 5, apparent Ki (Morrison tight-binding fit), 50 nM RIP1 kinase domain, 2 hours incubation, read-out: Ki
[3] = human RIP1 kinase domain (2-375), 2 hours incubation, Transcreener ADP assay, read-out: RIP1 Ki
[4] = Table 1, apparent Ki (Morrison tight-binding fit), 50 nM RIP1 kinase domain, 2 hours incubation, read-out: RIP1 Ki

Sequence of human RIP1 kinase domain (2-375) (Q13546 2-375): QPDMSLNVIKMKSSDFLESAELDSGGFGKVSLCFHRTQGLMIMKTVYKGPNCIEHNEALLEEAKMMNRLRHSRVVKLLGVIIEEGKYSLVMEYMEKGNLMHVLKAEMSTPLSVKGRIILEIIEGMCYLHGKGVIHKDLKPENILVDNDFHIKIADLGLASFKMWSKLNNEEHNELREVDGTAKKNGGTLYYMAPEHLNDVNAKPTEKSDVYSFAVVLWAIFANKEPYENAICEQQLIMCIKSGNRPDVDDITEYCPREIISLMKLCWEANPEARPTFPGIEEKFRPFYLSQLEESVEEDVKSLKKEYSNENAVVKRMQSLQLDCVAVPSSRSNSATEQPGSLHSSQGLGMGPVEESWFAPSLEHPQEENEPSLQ

## Cc1cn2c(n1)N(C)C(=O)[C@H](NC(=O)c1ncn(Cc3ccccc3F)n1)CC2 [Example 659, 1-[(2-fluorophenyl)methyl]-N-(7R)-2,9-dimethyl-8-oxo-6,7-dihydro-5H-imidazo[1,2-a][1,3]diazepin-7-yl-1,2,4-triazole-3-carboxamide]
[1]
  Ki: 0.035 µM

## Cc1cc2n(n1)CC[C@H](NC(=O)c1ncn(Cc3ccccc3F)n1)C(=O)N2C [Example 518, 1-[(2-fluorophenyl)methyl]-N-(6S)-2,4-dimethyl-5-oxo-7,8-dihydro-6H-pyrazolo[1,5-a][1,3]diazepin-6-yl-1,2,4-triazole-3-carboxamide]
[1]
  Ki: 0.0075 µM

## Cc1cc2n(n1)CC[C@H](NC(=O)c1nnc(Cc3ccc(F)cc3)[nH]1)C(=O)N2C [Example 484, 5-[(4-fluorophenyl)methyl]-N-(6S)-2,4-dimethyl-5-oxo-7,8-dihydro-6H-pyrazolo[1,5-a][1,3]diazepin-6-yl-4H-1,2,4-triazole-3-carboxamide]
[1]
  Ki: 0.082 µM

## CN1C(=O)[C@@H](NC(=O)c2ccn(Cc3ccccc3)n2)CCn2nccc21 [Example 740, 1-benzyl-N-[(6S)-4-methyl-5-oxo-7,8-dihydro-6H-pyrazolo[1,5-a][1,3]diazepin-6-yl]pyrazole-3-carboxamide]
[2]
  Ki: 0.137 µM

## CCn1nc(C(=O)N[C@H]2COc3ccccc3N(C)C2=O)c2c1CC[C@@H](C(F)(F)F)C2 (single isomer, unassigned) [Example 184]
[3]
  Ki: 0.407 µM

## C[C@H]1CCc2onc(C(=O)N[C@H]3COc4ccccc4N(C)C3=O)c2C1 [Example 68, (S)-5-methyl-N-((S)-5-methyl-4-oxo-2,3,4,5-tetrahydrobenzo[b][1,4]oxazepin-3-yl)-4,5,6,7-tetrahydrobenzo[d]isoxazole-3-carboxamide]
[4]
  Ki: 0.0538 µM

## C[C@]1(C(F)(F)F)OCc2cnc(C(=O)N[C@H]3CCc4cc(F)cc(F)c4NC3=O)nc21 [Example 747, (7S)-7-methyl-N-[(3S)-7,9-difluoro-2-oxo-1,3,4,5-tetrahydro-1-benzazepin-3-yl]-7-(trifluoromethyl)-5H-furo[3,4-d]pyrimidine-2-carboxamide]
[2]
  Ki: 0.042 µM

## CN1C(=O)[C@@H](NC(=O)c2n[nH]c3c2CCC2(CC2)C3)COc2ccccc21 [Example 2, (S)—N-(5-methyl-4-oxo-2,3,4,5-tetrahydrobenzo[b][1,4]oxazepin-3-yl)-1′,4′,5′,7′-tetrahydrospiro[cyclopropane-1,6′-indazole]-3′-carboxamide]
[4]
  Ki: 6.5 µM

## Cc1cc(F)c2c(c1)OC[C@H](NC(=O)c1nc3n(n1)[C@H](C(F)(F)F)CC3)C(=O)N2 [Example 347, (5S)—N-[(3S)-6-fluoro-8-methyl-4-oxo-3,5-dihydro-2H-1,5-benzoxazepin-3-yl]-5-(trifluoromethyl)-6,7-dihydro-5H-pyrrolo[1,2-b][1,2,4]triazole-2-carboxamide]
[1]
  Ki: 0.00491 µM

## CN1C(=O)[C@@H](NC(=O)c2n[nH]c3c2CC(c2ccc(F)cc2)OC3)COc2ccccc21 (stereo partly drawn) [Example 205, 5-(4-fluorophenyl)-N—((S)-5-methyl-4-oxo-2,3,4,5-tetrahydrobenzo[b][1,4]oxazepin-3-yl)-1,4,5,7-tetrahydropyrano[3,4-c]pyrazole-3-carboxamide]
[3]
  Ki: 0.0983 µM

## COCCNCc1cc2n(n1)CCC(NC(=O)c1ncn(Cc3ccccc3)n1)C(=O)N2C (single isomer, unassigned) [Example 780, 1-benzyl-N-(2-(((2-methoxyethyl)amino)methyl)-4-methyl-5-oxo-5,6,7,8-tetrahydro-4H-pyrazolo[1,5-a][1,3]diazepin-6-yl)-1H-1,2,4-triazole-3-carboxamide]
[2]
  Ki: 0.598 µM

## Cc1cc2n(n1)CC[C@H](NC(=O)c1ncn3ccc(C(F)(F)F)cc13)C(=O)N2C (stereo in doubt) [Example 337, N-(2,4-dimethyl-5-oxo-5,6,7,8-tetrahydro-4H-pyrazolo[1,5-a][1,3]diazepin-6-yl)-7-(trifluoromethyl)imidazo[1,5-a]pyridine-1-carboxamide]
Table 3, apparent Ki (Morrison tight-binding fit), 50 nM RIP1 kinase domain, 2 hours incubation, read-out: Ki
  Ki: 0.536 µM
